# Source: the OPERA property sets (Mansouri et al. 2018)
# Where a SMILES comes first, the peptide text is derived from it. The star is where a group is joined. NHtBu = CC(C)(C)N*
SMILES,logP,solubility
CCOC1OC2OC3(C)CCC4C(C)C(OC5OC(C(=O)O)C(O)C(O)C5O)CC(C1C)C24OO3 (stereo not drawn),0.61,
Cc1cn([C@H]2C=C[C@@H](CO)O2)c(=O)[nH]c1=S,0.09,
COC(=O)c1sccc1S(=O)(=O)NC(=O)Nc1nc(C)nc(OC)n1,1.56,
CC(=O)Nc1ccc2c(c1)Cc1cc([N+](=O)[O-])ccc1-2,3.08,
C=Cc1cc(C)ccc1C,4.16,
Nc1ccc(C=Cc2ccc(N)cc2S(=O)(=O)O)c(S(=O)(=O)O)c1,-1.7,
Cc1cc(C)c(C#[N+][O-])c(C)c1,3.21,
CS(=O)(=O)c1cccc2ccccc12,1.74,
O=C(O)CCCCc1ccccc1,2.94,
Cc1cc(C)nc(NC(=O)NS(=O)(=O)c2ccccc2C(=O)OC2COC2)n1,1.1,
Cc1nc(N2CCOCC2)c(C#N)cc1-c1ccccc1,3.65,
CC(C)(C)OCCO,0.39,
CC(C)c1cccc(OP(=O)(Oc2ccccc2)Oc2ccccc2)c1,5.31,
CC(=O)NC(C)C(=O)NC(CCC(=O)O)C(=O)NC(C)(C)C (stereo not drawn) (Ac-Ala-Glu-NHtBu; configuration not given here),-0.67,
NS(=O)(=O)c1nn2c(=Nc3cccc(Cl)c3)snc2s1,3.5,
O=C(O)CCCCn1nnc2ccccc21,0.48,
Cc1ccc(C(=O)CS(=O)(=O)c2ccc(C)cc2)cc1,3.3,
OC(CN1C2CCCC21)Cn1ccnc1 (stereo not drawn),0.37,
COCOCCn1cnc2c(=N)n(C)c(=O)[nH]c21,-1.52,
Cc1ccc2oc(-c3ccccc3C(=O)O)c(Br)c2c1,5.19,
Clc1c(Cl)c(Cl)c2c(Cl)c(Cl)c(Cl)c(Cl)c2c1Cl,8.5,1.98e-07 mM
Cc1cccc2c1Cc1ccccc1-2,4.97,
CCC1CCCCC1,4.56,
CC(=O)OC1C=CC2C3Cc4ccc(O)c5c4C2(CCN3C)C1O5 (stereo not drawn),1.55,
Oc1ccc(Cl)cc1Cc1ccccc1,3.6,0.681 mM

SMILES,logP,solubility
NC(N)=S,-1.08,
CC(C)(O)C(=O)Nc1ccc([N+](=O)[O-])cc1,1.61,
O=C(OCCO)c1ccccc1,1.12,
Nc1nc(=O)n([C@H]2CC[C@@H](CO)O2)cc1Br,-0.5,
COc1cc(S(C)=O)ccc1-c1cn2cccnc2n1 (stereo not drawn),0.63,
Clc1ccc(Cn2cncn2)cc1Cl,2.54,
O=C(CS(=O)(=O)c1ccccc1)c1ccc(Cl)cc1,2.69,
COC1=C(OC)C(=O)C=CC1=O,0.34,
CCCS(=O)c1ccc2[nH]c(NC(=O)OC)nc2c1 (stereo not drawn),1.27,
Cc1cc(Cl)c(Cc2cc(Cl)ccc2Cl)cc1Cl,7.48,
COc1ccc(C(=O)CS(=O)(=O)c2ccc(C)cc2)cc1,2.47,
CC(C)NCC(O)c1ccc(NS(C)(=O)=O)cc1 (stereo not drawn),0.24,
CCc1c(C(=O)O)c(=O)cnn1-c1ccc(Cl)cc1,-2.2,2510 mM
Nc1ccc(Cl)c(N)c1,0.85,
CC(Oc1ccc(Oc2ccc(C(F)(F)F)cn2)cc1)C(=O)O (stereo not drawn),3.18,
Clc1cccc2ccccc12,4,
CCC(C)C(NC(=O)c1cn(CC)c2nc(C)ccc2c1=O)C(=O)OC (stereo not drawn),3.15,
Cc1ccc(C=C(C#N)C#N)o1,2.03,
CC1=CCC(C(C)C)=CC1,4.5,
CCCCCCCCCCCCN1CC(C(=O)O)CC1=O (stereo not drawn),2.6,
NCCc1nc(-c2ccccc2)cs1,2.22,
CCOc1ccccc1NCc1cnc2nc(N)nc(N)c2c1C,2.07,
CC(C)COCCO,0.75,
COC(=O)[C@@H](N)Cc1ccc(O)c(O)c1,-0.21,
CC(C)OC(C)C,1.52,

SMILES,logP,solubility
CN(C)P(=O)(N(C)C)N1CCCC1,0.82,
OCCN1CC=C(c2ccccc2)CC1,2,
N=C(N)NN=C1C=CC(=NNC(N)=O)C=C1,1.56,
N#CCCCCCCC#N,0.59,
C[C@H](CCC(=O)O)[C@H]1CC[C@H]2[C@@H]3CC[C@@H]4C[C@H](O)CC[C@]4(C)[C@H]3C[C@H](O)[C@]12C,3.5,
CC(=O)OCN1C(=O)c2ccccc2C1=O,1.15,
CCn1cc(C(=O)NC(C)C(=O)OC)c(=O)c2ccc(C)nc21 (stereo not drawn),2.47,
COc1c2occc2cc2ccc(=O)oc12,2,
CCCCC(C)O (stereo not drawn),1.76,
COc1cc(C(=O)NCc2ccc(OCCN(C)C)cc2)cc(OC)c1OC,2.29,
C[C@H](CSC(=O)c1ccccc1)C(=O)N1C[C@@H](Sc2ccccc2)C[C@H]1C(=O)O,4.4,
CC(C(=O)O)c1ccc2oc(-c3ccc(Cl)cc3)nc2c1 (stereo not drawn),3.23,
NS(=O)(=O)c1cc2cc(CNCCF)sc2o1,0.34,
O=C(NCc1ccc(O)cc1)C(=O)c1c[nH]c2ccc([N+](=O)[O-])cc12,2.67,
CNS(=O)(=O)c1ccc(C)cc1,1.28,
ClCC1CO1 (stereo not drawn),0.45,
CC(CCC(=O)NCC(=O)O)C1CCC2C3CC(O)C4CC(O)CCC4(C)C3CCC12C (stereo not drawn),2.15,
N=C(N)NN=Cc1ccc(Cl)cc1,0.96,
O=C(OCn1ncc2c(=O)[nH]cnc21)c1ccccc1,1.5,
CC1(C2=CCCCC2)C(=O)NC(=O)NC1=O,1.6,
S=C=Nc1ccc(Cl)cc1,3.91,
N#CCCN(N)c1nc2cc(C(F)(F)F)ccc2o1,1.72,
OCCOCCOCCO,-1.75,
CNCCc1ccccn1,0.68,
Nc1nc(NC(=O)C(F)(F)C(F)(F)C(F)(F)F)n[nH]1,1.54,
